Measured values from patent publication US20190375708A1 (VenatoRx Pharmaceuticals, Inc., priority 2018, published 2019).

How the values were obtained:
[1] = test system: HBV replication in HepAD38 cells; test: Anti-HBV replication assay in HepAD38 cells (QPCR of extracellular HBV DNA); assay type: cell-based, HBV (genotype D, serotype ayw); settings: Hepatitis B virus, 168 h, 7 days incubation, extracellular HBV DNA by QPCR, read-out: Anti-HBV EC50
Summary of the method: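 Compounds (1 log10 serial dilutions, […]) were left 7 days on tetracycline-free HepAD38 cultures, a HepG2 line with tet-controlled HBV genotype D. EC50 came from 4-parameter regression of percent inhibition versus vehicle, using supernatant HBV DNA copies/mL measured by QPCR.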

[2] = In vitro cytotoxicity assay (MTT cell viability) in HepG2 cells; assay type: cell-based, human; settings: human
Summary of the method: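 Read-out: MTT formazan absorbance at 492 nm, expressed as % of vehicle signal; CC50 by 4-parameter non-linear regression. Parental HepG2, 20,000 cells/well, treated 7 days with compound from 30 μM down to 1.0 nM.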

Row | SMILES | EC50 [1] | CC50 at 7 days [2]
1 | Cc1cc(NC(=O)c2c(Cl)c(C(=O)C(=O)NCC(C)(C)CO)n3c2CCC3)cnc1F [Example 577, 6-chloro-N-(6-fluoro-5-methylpyridin-3-yl)-5-(2-((3-hydroxy-2,2-dimethylpropyl)amino)-2-oxoacetyl)-2,3-dihydro-1H-pyrrolizine-7-carboxamide] | > 1000 nM | > 30000 nM
2 | Cc1cc(NC(=O)c2c(C)c(C(=O)C(=O)Nc3ccc(F)cn3)n(C)c2C)cnc1F [Example 338, N-(6-fluoro-5-methylpyridin-3-yl)-5-(2-((5-fluoropyridin-2-yl)amino)-2-oxoacetyl)-1,2,4-trimethyl-1H-pyrrole-3-carboxamide] | 500 to 1000 nM | > 30000 nM
3 | COc1c(C(=O)Nc2ccc(F)c(F)c2)c(C)n(C)c1C(=O)C(=O)NC(C)(C)CO [Example 381, N-(3,4-difluorophenyl)-5-(2-((1-hydroxy-2-methylpropan-2-yl)amino)-2-oxoacetyl)-4-methoxy-1,2-dimethyl-1H-pyrrole-3-carboxamide] | 50 to 499 nM | > 30000 nM
4 | Cc1cc(NC(=O)c2c(C)c(C(=O)C(=O)N[C@H]3C[C@H](O)C3)n(C)c2C)ccc1F [Example 129, N-(4-fluoro-3-methylphenyl)-5-(22-(((1r,3r)-3-hydroxycyclobutyl)amino)-2-oxoacetyl)-1,2,4-trimethyl-1H-pyrrole-3-carboxamide] | < 50 nM | > 30000 nM
5 | CC(C)(CO)NC(=O)C(=O)c1cc(C(=O)Nc2ccc(F)c(C(F)F)c2)c2n1CCCC2 [Example 429, N-(3-(difluoromethyl)-4-fluorophenyl)-3-(2-((1-hydroxy-2-methylpropan-2-yl)amino)-2-oxoacetyl)-5,6,7,8-tetrahydroindolizine-1-carboxamide] | 50 to 499 nM | > 30000 nM
6 | Cc1cc(NC(=O)c2c(C)c(C(=O)C(=O)NC3CC(=O)Nc4ccccc43)n(C)c2C)ccc1F (stereo not drawn) [Example 626, N-(4-fluoro-3-methylphenyl)-1,2,4-trimethyl-5-(2-oxo-2-((2-oxo-1,2,3,4-tetrahdyroquinolin-4-yl)amino)acetyl)-1H-pyrrole-3-carboxamide] | < 50 nM | > 30000 nM
7 | Cc1c(C(=O)Nc2cccc(C(F)F)c2)c(C)n(C)c1C(=O)C(=O)N[C@]1(C)C[C@H](O)C1 [Example 705, N-(3-(difluoromethyl)phenyl)-5-(2-(((1s,3s)-3-hydroxy-1-methylcyclobutyl)amino)-2-oxoacetyl)-1,2,4-trimethyl-1H-pyrrole-3-carboxamide] | < 50 nM | > 30000 nM
8 | Cc1cc(NC(=O)c2c(Cl)c(C(=O)C(=O)N[C@H](C)C(F)(F)F)n3c2CCC3)cnc1F [Example 576, (R)-6-chloro-N-(6-fluoro-5-methylpyridin-3-yl)-5-(2-oxo-2-((1,1,1-trifluoropropan-2-yl)amino)acetyl)-2,3-dihydro-1H-pyrrolizine-7-carboxamide] | 50 to 499 nM | 5000 to 30000 nM
9 | Cc1cc(NC(=O)c2c(C)c(C(=O)C(=O)NC3(c4nc(-c5ccncc5)no4)CCCCC3)n(C)c2C)ccc1F [Example 630, N-(4-fluoro-3-methylphenyl)-1,2,4-trimethyl-5-(2-oxo-2-((1-(3-(pyridin-4-yl)-1,2,4-oxadiazol-5-yl)cyclohexyl)amino)acetyl)-1H-pyrrole-3-carboxamide] | < 50 nM | > 30000 nM
10 | CC(C)(CO)CNC(=O)C(=O)c1c(Cl)c(C(=O)Nc2ccnc(F)c2)c2n1CCCC2 [Example 526, 2-chloro-N-(2-fluoropyridin-4-yl)-3-(2-((3-hydroxy-2,2-dimethylpropyl)amino)-2-oxoacetyl)-5,6,7,8-tetrahydroindolizine-1-carboxamide] | > 1000 nM | > 30000 nM
11 | Cc1noc([C@@H](C)NC(=O)C(=O)c2c(Cl)c(C(=O)Nc3ccc(F)c(Cl)c3)c3n2CCC3)n1 [Example 554, (R)-6-chloro-N-(3-chloro-4-fluorophenyl)-5-(2-((1-(3-methyl-1,2,4-oxadiazol-5-yl)ethyl)amino)-2-oxoacetyl)-2,3-dihydro-1H-pyrrolizine-7-carboxamide] | < 50 nM | 5000 to 30000 nM
12 | Cc1c(C(=O)Nc2ccc(F)c(F)c2)c(C)n(C)c1C(=O)C(=O)NC1(C(N)=O)CCCC1 [Example 147, 5-(2-((1-carbamoylcyclopentyl)amino)-2-oxoacetyl)-N-(3,4-difluorophenyl)-1,2,4-trimethyl-1H-pyrrole-3-carboxamide] | < 50 nM | > 30000 nM
13 | Cc1cc(NC(=O)c2c(C)c(C(=O)C(=O)NC(C)(C)CO)n(C)c2C)cnc1F [Example 161, N-(6-fluoro-5-methylpyridin-3-yl)-5-(2-((1-hydroxy-2-methylpropan-2-yl)amino)-2-oxoacetyl)-1,2,4-trimethyl-1H-pyrrole-3-carboxamide] | < 50 nM | > 30000 nM
14 | Cc1cc(NC(=O)c2c(C)c(C(=O)C(=O)NC(C)(C)CO)n3c2CCCC3)cnc1F [Example 478, N-(6-fluoro-5-methylpyridin-3-yl)-3-(2-((1-hydroxy-2-methylpropan-2-yl)amino)-2-oxoacetyl)-2-methyl-5,6,7,8-tetrahydroindoliizine-1-carboxamide] | > 1000 nM | > 30000 nM
15 | Cc1cc(NC(=O)c2c(C)c(C(=O)C(=O)N[C@H]3CC[C@@H](O)CC3)n(C)c2C)cnc1F [Example 174, N-(6-fluoro-5-methylpyridin-3-yl)-5-(2-(((1s,4s)-4-hydroxycyclohexyl)amino)-2-oxoacetyl)-1,2,4-trimethyl-1H-pyrrole-3-carboxamide] | 50 to 499 nM | > 30000 nM
16 | Cc1cc(NC(=O)c2c(C)c(C(=O)C(=O)NC(C)(C)C)n3c2CCCC3)ccc1F [Example 434, 3-(2-(tert-butylamino)-2-oxoacetyl)-N-(4-fluoro-3-methylphenyl)-2-methyl-5,6,7,8-tetrahydroindolizine-1-carboxamide] | < 50 nM | > 30000 nM
17 | Cc1cc(NC(=O)c2c(C)c(C(=O)C(=O)NC3(C)CCN(C(=O)Nc4ccc(F)c(F)c4)CC3)n(C)c2C)ccc1F [Example 707, N-(3,4-difluorophenyl)-4-(2-(4-((4-fluoro-3-methylphenyl)carbamoyl)-1,3,5-trimethyl-1H-pyrrol-2-yl)-2-oxoacetamido)-4-methylpiperidine-1-carboxamide] | < 50 nM | 500 to 4990 nM
18 | COC(=O)[C@@H](NC(=O)C(=O)c1c(C)c(C(=O)Nc2ccc(F)c(C)c2)c(C)n1C)[C@@H](C)O [Example 27, methyl (2-(4-((4-fluoro-3-methylphenyl)carbamoyl)-1,3,5-trimethyl-1H-pyrrol-2-yl)-2-oxoacetyl)-L-threoninate] | > 1000 nM | > 30000 nM
19 | Cc1c(C(=O)Nc2cccc(Cl)c2)c(C)n(C)c1C(=O)C(=O)N[C@H](C)C(F)(F)F [Example 603, (R)-N-(3-chlorophenyl)-1,2,4-trimethyl-5-(2-oxo-2-((1,1,1-trifluoropropan-2-yl)amino)acetyl)-1H-pyrrole-3-carboxamide] | < 50 nM | 5000 to 30000 nM
20 | CC(C)(O)CNC(=O)C(=O)c1c(Cl)c(C(=O)Nc2ccc(F)c(Cl)c2)c2n1CCCC2 [Example 532, 2-chloro-N-(3-chloro-4-fluorophenyl)-3-(2-((2-hydroxy-2-methylpropyl)amino)-2-oxoacetyl)-5,6,7,8-tetrahydroindolizine-1-carboxamide] | 500 to 1000 nM | 500 to 4990 nM
21 | Cc1cc(NC(=O)c2c(C)c(C(=O)C(=O)NCC(C)(C)O)n(CCF)c2C)ccc1F [Example 178, N-(4-fluoro-3-methylphenyl)-1-(2-fluoroethyl)-5-(2-((2-hydroxy-2-methylpropyl)amino)-2-oxoacetyl)-2,4-dimethyl-1H-pyrrole-3-carboxamide] | 50 to 499 nM | 5000 to 30000 nM
22 | Cc1cc(NC(=O)c2c(C)c(C(=O)C(=O)N[C@@H](C(=O)O)C3CCCCC3)n(C)c2C)ccc1F [Example 69, (R)-2-cyclohexyl-2-(2-(4-((4-fluoro-3-methylphenyl)carbamoyl)-1,3,5-trimethyl-1H-pyrrol-2-yl)-2-oxoacetamido)acetic acid] | 500 to 1000 nM | > 30000 nM
23 | Cc1cc(NC(=O)c2c(C)c(C(=O)C(=O)NC3(CO)CCC3)n3c2CCCC3)ccc1F [Example 442, N-(4-fluoro-3-methylphenyl)-3-(2-((1-(hydroxymethyl)cyclobutyl)amino)-2-oxoacetyl)-2-methyl-5,6,7,8-tetrahydroindolizine-1-carboxamide] | < 50 nM | 5000 to 30000 nM
24 | Cc1cc(NC(=O)c2c(C)c(C(=O)C(=O)N[C@H]3COC[C@@H]3O)n3c2CCCC3)ccc1F [Example 439, N-(4-fluoro-3-methylphenyl)-3-(2-(((3S,4R)-4-hydroxytetrahydrofuran-3-yl)amino)-2-oxoacetyl)-2-methyl-5,6,7,8-tetrahydroindolizine-1-carboxamide] | 50 to 499 nM | > 30000 nM
25 | Cc1cc(NC(=O)c2c(C)c(C(=O)C(=O)NC3CCN(c4cccs4)CC3)n(C)c2C)ccc1F [Example 655] | 50 to 499 nM | > 30000 nM
26 | Cc1noc([C@H](NC(=O)C(=O)c2c(Cl)c(C(=O)Nc3ccc(F)c(C)c3)c3n2CCC3)C(C)C)n1 [Example 544, (R)-6-chloro-N-(4-fluoro-3-methylphenyl)-5-(2-((2-methyl-1-(3-methyl-1,2,4-oxadiazol-5-yl)propyl)amino)-2-oxoacetyl)-2,3-dihydro-1H-pyrrolizine-7-carboxamide] | < 50 nM | > 30000 nM
27 | C#CCNC(=O)C(=O)c1c(C)c(C(=O)Nc2ccc(F)c(C)c2)c(C)n1C [Example 275, N-(4-fluoro-3-methylphenyl)-1,2,4-trimethyl-5-(2-oxo-2-(prop-2-yn-1-ylamino)acetyl)-1H-pyrrole-3-carboxamide] | < 50 nM | > 30000 nM
